This note sets out measurements from PubChem BioAssay (NCI).

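Five compound concentrations were applied to cells in 96-well plates for 48 hours; endpoints were derived by simple linear interpolation of the resulting dose-response curve. GI50: concentration for 50% inhibition of growth. At the TGI there is no net growth.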

One assay has as its system CAKI-1 renal. In words: NCI-60 cell line screen, 48 h.
As for `COc1cccc(-c2nc(-c3ccc(NC(=O)C(C)C)cc3)[nH]c2-c2ccnc(Br)c2)c1`, the GI50 was 2.73 µM and the TGI was above 100 µM.
On to `OCc1ccc(-c2ccc(-c3ccc(CO)s3)o2)s1`, for which the TGI came out at 0.061 µM.
On to `ClCc1cccc(Cn2cnc3ncnc(Cl)c32)c1`, for which the GI50 was 2.12 µM and the TGI came out at 4.04 µM.
In the case of `CC1(C)C2CCC(=O)C1CC2` (stereo not given), the TGI is above 100 µM.
In the case of `O=c1c2sccc2n(CC2COc3ccccc3O2)c(=O)n1O` (stereo not given), the GI50 is 20.1 µM and the TGI is 97.3 µM.
Regarding `COc1cc(/C=C/c2cc(O)c(C(C)=O)c(O)c2)cc2c1O[C@]1(C)CC[C@@H](O)C(C)(C)[C@H]1C2`, the GI50 is 4.12 µM and the TGI is above 100 µM.
With `Cc1cccc2c1CC1(C2)Cc2c(C)cccc2C1=O` (stereo not given), the TGI is 48.6 µM.

Another assay has as its system SNB-75 CNS. In words: NCI-60 cell line screen, 48 h.
Turning to `COc1cccc(-c2nc(-c3ccc(NC(=O)C(C)C)cc3)[nH]c2-c2ccnc(Br)c2)c1`, the GI50 was 488 nM and the TGI is above 100 µM.
With `OCc1ccc(-c2ccc(-c3ccc(CO)s3)o2)s1`, the TGI worked out at 80.3 µM.
`ClCc1cccc(Cn2cnc3ncnc(Cl)c32)c1`: the GI50 is 1840 nM and the TGI was found to be 3.53 µM.
Consider `CC1(C)C2CCC(=O)C1CC2` (stereo not given), for which the TGI is above 100 µM.
As for `O=c1c2sccc2n(CC2COc3ccccc3O2)c(=O)n1O` (stereo not given), the GI50 is 3810 nM and the TGI is 56 µM.
As to `COc1cc(/C=C/c2cc(O)c(C(C)=O)c(O)c2)cc2c1O[C@]1(C)CC[C@@H](O)C(C)(C)[C@H]1C2`, the GI50 is 1770 nM and the TGI was found to be 27 µM.
Take `Cc1cccc2c1CC1(C2)Cc2c(C)cccc2C1=O` (stereo not given): the TGI turned out to be 70.7 µM.

The subject of another assay is NCI-H522 lung. In words: NCI-60 cell line screen, 48 h.
As for `COc1cccc(-c2nc(-c3ccc(NC(=O)C(C)C)cc3)[nH]c2-c2ccnc(Br)c2)c1`, the GI50 was 2.8 µM and the TGI was above 100 µM.
Compound `OCc1ccc(-c2ccc(-c3ccc(CO)s3)o2)s1` came in with a TGI above 100 µM.
For the compound `ClCc1cccc(Cn2cnc3ncnc(Cl)c32)c1`, the GI50 is 6.19 µM and the TGI amounted to 23.9 µM.
`CC1(C)C2CCC(=O)C1CC2` (stereo not given): the TGI was above 100 µM.
With `O=c1c2sccc2n(CC2COc3ccccc3O2)c(=O)n1O` (stereo not given), the GI50 was 6.2 µM and the TGI was above 100 µM.
For the compound `COc1cc(/C=C/c2cc(O)c(C(C)=O)c(O)c2)cc2c1O[C@]1(C)CC[C@@H](O)C(C)(C)[C@H]1C2`, the GI50 is 17.3 µM and the TGI turned out to be 54 µM.
The compound `Cc1cccc2c1CC1(C2)Cc2c(C)cccc2C1=O` (stereo not given) displayed a TGI of 59.3 µM.

In the next assay the test system is DU-145 prostate. In words: NCI-60 cell line screen, 48 h.
Regarding `COc1cccc(-c2nc(-c3ccc(NC(=O)C(C)C)cc3)[nH]c2-c2ccnc(Br)c2)c1`, the GI50 is 3.86 µM and the TGI was above 100 µM.
Compound `OCc1ccc(-c2ccc(-c3ccc(CO)s3)o2)s1` gave a TGI of 66.5 µM.
`ClCc1cccc(Cn2cnc3ncnc(Cl)c32)c1`: the GI50 was 15.2 µM and the TGI worked out at 31 µM.
Turning to `CC1(C)C2CCC(=O)C1CC2` (stereo not given), the TGI is above 100 µM.
Turning to `O=c1c2sccc2n(CC2COc3ccccc3O2)c(=O)n1O` (stereo not given), the GI50 is 19.8 µM and the TGI is above 100 µM.
As for `COc1cc(/C=C/c2cc(O)c(C(C)=O)c(O)c2)cc2c1O[C@]1(C)CC[C@@H](O)C(C)(C)[C@H]1C2`, the GI50 is 16.6 µM and the TGI is above 100 µM.
`Cc1cccc2c1CC1(C2)Cc2c(C)cccc2C1=O` (stereo not given): the TGI stood at 77.3 µM.

A further assay relates to NCI/ADR-RES ovarian. In words: NCI-60 cell line screen, 48 h.
For `COc1cccc(-c2nc(-c3ccc(NC(=O)C(C)C)cc3)[nH]c2-c2ccnc(Br)c2)c1`, the GI50 is 3.03 µM and the TGI is above 100 µM.
`OCc1ccc(-c2ccc(-c3ccc(CO)s3)o2)s1`: the TGI was 71.5 µM.
`ClCc1cccc(Cn2cnc3ncnc(Cl)c32)c1`: the GI50 is 2.78 µM and the TGI came to 9.75 µM.
Take `CC1(C)C2CCC(=O)C1CC2` (stereo not given): the TGI was above 100 µM.
On to `O=c1c2sccc2n(CC2COc3ccccc3O2)c(=O)n1O` (stereo not given), for which the GI50 is 23 µM and the TGI is above 100 µM.
The matching figures for `COc1cc(/C=C/c2cc(O)c(C(C)=O)c(O)c2)cc2c1O[C@]1(C)CC[C@@H](O)C(C)(C)[C@H]1C2`: 14.3 µM and 65.8 µM.
Regarding `Cc1cccc2c1CC1(C2)Cc2c(C)cccc2C1=O` (stereo not given), the TGI is above 100 µM.

In another assay the test system is OVCAR-3 ovarian. In words: NCI-60 cell line screen, 48 h.
Take `COc1cccc(-c2nc(-c3ccc(NC(=O)C(C)C)cc3)[nH]c2-c2ccnc(Br)c2)c1`: the GI50 is 3.38 µM and the TGI is above 100 µM.
Take `OCc1ccc(-c2ccc(-c3ccc(CO)s3)o2)s1`: the TGI was found to be 0.791 µM.
Turning to `ClCc1cccc(Cn2cnc3ncnc(Cl)c32)c1`, the GI50 was 1.77 µM and the TGI stood at 3.23 µM.
For the compound `CC1(C)C2CCC(=O)C1CC2` (stereo not given), the TGI was above 100 µM.
On to `O=c1c2sccc2n(CC2COc3ccccc3O2)c(=O)n1O` (stereo not given), for which the GI50 was 10.4 µM and the TGI turned out to be 44.9 µM.
Turning to `COc1cc(/C=C/c2cc(O)c(C(C)=O)c(O)c2)cc2c1O[C@]1(C)CC[C@@H](O)C(C)(C)[C@H]1C2`, the GI50 was 4.67 µM and the TGI stood at 53.9 µM.
Consider `Cc1cccc2c1CC1(C2)Cc2c(C)cccc2C1=O` (stereo not given), for which the TGI was 51.1 µM.

The test system of the next assay is 786-0 renal. In words: NCI-60 cell line screen, 48 h.
In the case of `COc1cccc(-c2nc(-c3ccc(NC(=O)C(C)C)cc3)[nH]c2-c2ccnc(Br)c2)c1`, the GI50 is 1300 nM and the TGI is above 100 µM.
In turn, `OCc1ccc(-c2ccc(-c3ccc(CO)s3)o2)s1` had a TGI above 85.8 µM.
`ClCc1cccc(Cn2cnc3ncnc(Cl)c32)c1`: the GI50 is 2060 nM and the TGI turned out to be 4.09 µM.
`CC1(C)C2CCC(=O)C1CC2` (stereo not given) showed a TGI above 100 µM.
For the compound `O=c1c2sccc2n(CC2COc3ccccc3O2)c(=O)n1O` (stereo not given), the GI50 is 41700 nM and the TGI was above 100 µM.
The matching figures for `COc1cc(/C=C/c2cc(O)c(C(C)=O)c(O)c2)cc2c1O[C@]1(C)CC[C@@H](O)C(C)(C)[C@H]1C2`: 2910 nM and 28.9 µM.
With `Cc1cccc2c1CC1(C2)Cc2c(C)cccc2C1=O` (stereo not given), the TGI turned out to be 70.2 µM.

The next assay deals with SN12C renal. As to the kind of experiment: NCI-60 cell line screen, 48 h.
In the case of `COc1cccc(-c2nc(-c3ccc(NC(=O)C(C)C)cc3)[nH]c2-c2ccnc(Br)c2)c1`, the GI50 is 3.31 µM and the TGI is above 100 µM.
For the compound `OCc1ccc(-c2ccc(-c3ccc(CO)s3)o2)s1`, the TGI turned out to be 81 µM.
Turning to `ClCc1cccc(Cn2cnc3ncnc(Cl)c32)c1`, the GI50 was 7.02 µM and the TGI was determined as 20.2 µM.
Compound `CC1(C)C2CCC(=O)C1CC2` (stereo not given) returned a TGI above 100 µM.
`O=c1c2sccc2n(CC2COc3ccccc3O2)c(=O)n1O` (stereo not given): the GI50 is 11.1 µM and the TGI is above 100 µM.
For the compound `COc1cc(/C=C/c2cc(O)c(C(C)=O)c(O)c2)cc2c1O[C@]1(C)CC[C@@H](O)C(C)(C)[C@H]1C2`, the GI50 was 9.07 µM and the TGI was 72.8 µM.
`Cc1cccc2c1CC1(C2)Cc2c(C)cccc2C1=O` (stereo not given) yielded a TGI of 74.2 µM.

The test system of another assay is CCRF-CEM leukemia. As to the kind of experiment: NCI-60 cell line screen, 48 h.
As for `COc1cccc(-c2nc(-c3ccc(NC(=O)C(C)C)cc3)[nH]c2-c2ccnc(Br)c2)c1`, the GI50 is 2.99 µM and the TGI is above 100 µM.
On to `OCc1ccc(-c2ccc(-c3ccc(CO)s3)o2)s1`, for which the TGI stood at 72.2 µM.
Regarding `ClCc1cccc(Cn2cnc3ncnc(Cl)c32)c1`, the GI50 is 6.91 µM and the TGI stood at 22.2 µM.
As for `CC1(C)C2CCC(=O)C1CC2` (stereo not given), the TGI was above 100 µM.
Regarding `O=c1c2sccc2n(CC2COc3ccccc3O2)c(=O)n1O` (stereo not given), the GI50 was 7 µM and the TGI was 94.4 µM.
As for `COc1cc(/C=C/c2cc(O)c(C(C)=O)c(O)c2)cc2c1O[C@]1(C)CC[C@@H](O)C(C)(C)[C@H]1C2`, the GI50 is 4.4 µM and the TGI was above 100 µM.
In the case of `Cc1cccc2c1CC1(C2)Cc2c(C)cccc2C1=O` (stereo not given), the TGI was 56.9 µM.

In the next assay the test system is SK-OV-3 ovarian. As to the kind of experiment: NCI-60 cell line screen, 48 h.
For `COc1cccc(-c2nc(-c3ccc(NC(=O)C(C)C)cc3)[nH]c2-c2ccnc(Br)c2)c1`, the GI50 is 3.66 µM and the TGI was above 100 µM.
`OCc1ccc(-c2ccc(-c3ccc(CO)s3)o2)s1`: the TGI is 39.2 µM.
With `ClCc1cccc(Cn2cnc3ncnc(Cl)c32)c1`, the GI50 was 10.8 µM and the TGI came out at 25.5 µM.
Regarding `CC1(C)C2CCC(=O)C1CC2` (stereo not given), the TGI is above 100 µM.
On to `O=c1c2sccc2n(CC2COc3ccccc3O2)c(=O)n1O` (stereo not given), for which the GI50 was 32.8 µM and the TGI is above 100 µM.
In the case of `COc1cc(/C=C/c2cc(O)c(C(C)=O)c(O)c2)cc2c1O[C@]1(C)CC[C@@H](O)C(C)(C)[C@H]1C2`, the GI50 was 9.58 µM and the TGI amounted to 79.1 µM.
As to `Cc1cccc2c1CC1(C2)Cc2c(C)cccc2C1=O` (stereo not given), the TGI was above 100 µM.
